# Source: PubChem BioAssay (NCI)
#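 Cultured in 96-well plates, cells were exposed to test compound for 48 hours across five concentrations. GI50 marks 50% less growth. TGI: total growth inhibition.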
# Key:
# Assay in all cases: NCI tumour cell line growth inhibition, 48 h
# [1] = test system: OVCAR-5 ovarian
# [2] = test system: HCC-2998 colon
# [3] = test system: EKVX NSCLC
# [4] = test system: HOP-62 NSCLC
# [5] = test system: SN12C renal
# [6] = test system: UACC-62 melanoma
# [7] = test system: UO-31 renal
# [8] = test system: COLO 205 colon
# [9] = test system: NCI-H226 lung
# [10] = test system: TK-10 renal
# [11] = test system: MCF7 breast
# [12] = test system: T-47D breast
# [13] = test system: RXF 393 renal
# [14] = test system: MDA-MB-231 breast
# [15] = test system: HL-60(TB) leukemia
# [16] = test system: OVCAR-4 ovarian
# [17] = test system: OVCAR-8 ovarian
# [18] = test system: SF-268 CNS
# [19] = test system: ACHN renal
# [20] = test system: NCI/ADR-RES ovarian
# [21] = test system: DU-145 prostate
# [22] = test system: HS 578T breast
# [23] = test system: SK-MEL-5 melanoma
# [24] = test system: A549 NSCLC
# [25] = test system: HCT-15 colon
# [26] = test system: UACC-257 melanoma
# [27] = test system: SK-MEL-28 melanoma
# [28] = test system: SF-539 CNS
# [29] = test system: A498 renal
# [30] = test system: NCI-H460 lung
# [31] = test system: MALME-3M melanoma
# [32] = test system: HT29 colon
# [33] = test system: 786-0 renal
# [34] = test system: SK-MEL-2 melanoma
# [35] = test system: RPMI-8226 leukemia
# [36] = test system: LOX IMVI melanoma
# [37] = test system: SNB-19 CNS
# [38] = test system: IGROV1 ovarian
# [39] = test system: NCI-H522 lung
# [40] = test system: SW-620 colon
# [41] = test system: NCI-H23 lung
# [42] = test system: PC-3 prostate
# [43] = test system: HCT-116 colon
# [44] = test system: OVCAR-3 ovarian
# [45] = test system: BT-549 breast
# [46] = test system: SK-OV-3 ovarian
# [47] = test system: SNB-75 CNS
# [48] = test system: HOP-92 NSCLC
# [49] = test system: MDA-MB-435
# [50] = test system: M14 melanoma
# [51] = test system: U251 CNS
compound,measurement,setting,value
C#CC[C@@H]1C[C@]2(C)[C@H]3CC[C@@H]4[C@H]5C(C(=C)C)CC[C@]5(C(=O)NCCCN5CCN(CCCN)CC5)CC[C@@]4(C)[C@]3(C)CC[C@H]2C(C)(C)[C@H]1OC(C)=O (stereo partly drawn),GI50,[1],1.58 µM
same,TGI,[1],2.95 µM
Cc1ccc2c(c1)SC1=Nc3sc4cc(C)ccc4[n+]3CN12,TGI,[2],6.62 µM
same,TGI,[3],45.4 µM
same,TGI,[4],54.6 µM
same,TGI,[5],56.2 µM
same,TGI,[6],16.6 µM
same,TGI,[7],> 100 µM
same,TGI,[8],13.1 µM
same,TGI,[9],75.2 µM
same,TGI,[10],48 µM
same,TGI,[11],> 100 µM
same,TGI,[12],8.75 µM
same,TGI,[13],> 100 µM
same,TGI,[14],92.8 µM
same,TGI,[15],9.77 µM
same,TGI,[16],29.6 µM
same,TGI,[17],18.8 µM
same,TGI,[18],> 100 µM
same,TGI,[19],> 100 µM
same,TGI,[20],> 100 µM
same,TGI,[21],> 100 µM
same,TGI,[22],35.5 µM
same,TGI,[23],3.28 µM
same,TGI,[24],67.1 µM
same,TGI,[25],> 100 µM
same,TGI,[26],12.8 µM
same,TGI,[27],29.2 µM
same,TGI,[28],25.4 µM
same,TGI,[29],87.1 µM
same,TGI,[30],> 100 µM
same,TGI,[31],4.63 µM
same,TGI,[32],28.4 µM
same,TGI,[33],> 100 µM
same,TGI,[34],17.8 µM
same,TGI,[35],6.17 µM
same,TGI,[36],> 100 µM
same,TGI,[37],16.9 µM
same,TGI,[38],34 µM
same,TGI,[39],11.2 µM
same,TGI,[40],53.1 µM
same,TGI,[41],13.6 µM
same,TGI,[42],> 100 µM
same,TGI,[43],35 µM
same,TGI,[44],6.97 µM
same,TGI,[45],18.3 µM
same,TGI,[46],> 100 µM
same,TGI,[47],64.5 µM
same,TGI,[48],68 µM
same,TGI,[49],20.2 µM
same,TGI,[1],> 100 µM
same,TGI,[50],19.1 µM
same,TGI,[51],19 µM
